Results from patent US11072811B2, “Substrates for covalent tethering of proteins to functional groups or solid surfaces” (PROMEGA CORPORATION, priority 2013, dated 2021).
“Also recorded” adds a separate entry of the source.

What was measured:
[1] = biological target: T1, glucocorticoid receptor (GR) (Homo sapiens, UniProt P04150); assay: Glucocorticoid receptor competitor assay (fluorescence polarization); assay type: binding; conditions: dexamethasone-chloroalkane conjugates; FIG. 7
T1 construct: purchased Life Technology
T1 sequence (P04150 1-777): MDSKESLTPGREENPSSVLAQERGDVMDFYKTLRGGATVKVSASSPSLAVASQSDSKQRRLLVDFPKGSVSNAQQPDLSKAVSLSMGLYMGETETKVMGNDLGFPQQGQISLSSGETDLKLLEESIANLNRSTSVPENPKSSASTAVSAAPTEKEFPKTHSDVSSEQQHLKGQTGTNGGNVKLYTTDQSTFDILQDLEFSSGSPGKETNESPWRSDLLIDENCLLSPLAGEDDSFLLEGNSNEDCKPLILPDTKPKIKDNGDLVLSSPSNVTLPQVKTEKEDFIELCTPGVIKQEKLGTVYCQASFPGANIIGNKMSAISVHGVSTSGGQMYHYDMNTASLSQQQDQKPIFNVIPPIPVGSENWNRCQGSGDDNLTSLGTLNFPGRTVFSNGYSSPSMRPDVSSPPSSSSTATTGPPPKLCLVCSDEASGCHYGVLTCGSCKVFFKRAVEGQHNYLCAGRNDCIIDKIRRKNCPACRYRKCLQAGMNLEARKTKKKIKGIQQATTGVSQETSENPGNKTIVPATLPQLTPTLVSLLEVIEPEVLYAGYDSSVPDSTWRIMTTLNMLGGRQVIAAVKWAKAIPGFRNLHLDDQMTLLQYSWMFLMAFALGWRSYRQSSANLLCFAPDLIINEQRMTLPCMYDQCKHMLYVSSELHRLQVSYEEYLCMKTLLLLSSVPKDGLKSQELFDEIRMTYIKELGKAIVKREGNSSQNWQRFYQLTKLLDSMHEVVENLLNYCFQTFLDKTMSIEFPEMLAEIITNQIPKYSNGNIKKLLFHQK
Excerpt: c) Binding efficiency to the target glucocorticoid receptor (GR) was done using the glucocorticoid receptor competitor assay (Life Technology) as recommended by the manufacturer.

[2] = test system: HaloTag® protein; assay: Binding efficiency to HaloTag protein in cells (chase with fluorescent HaloTag ligand, SDS-PAGE); assay type: cell-based; conditions: 10 μM
Protocol: b) Binding efficiency to HaloTag® protein in cells was measured by adding the methotrexate-chloroalkane conjugates to cells expressing a HaloTag® protein to a final concentration of 10 μM. Following 0-120 mins of binding, the reactions were chased with 5 μM fluorescent HaloTag® ligand. Unbound HaloTag® protein was detected through binding to the fluorescent HaloTag® ligand followed by cell lysis, analysis on a SDS-PAGE gel and detection on a fluorescent gel scanner.
b) Binding efficiency to HaloTag® protein in cells was measured by adding the dexamethasone-chloroalkane conjugates to cells expressing a HaloTag® protein to a final concentration of 10 μM. Following 0-60 mins of binding, the reaction was chased with 5 μM fluorescent HaloTag ligand. Unbound HaloTag® protein was detected through binding to the fluorescent HaloTag® ligand followed by cell lysis, analysis on SDS-PAGE gel and detection on a fluorescent gel scanner.

[3] = biological target: T2, NanoLuc-DHFR fusion protein (Homo sapiens, UniProt P00374); assay: Pull-down of NanoLuc-DHFR fusion from living cells onto HALOTAG protein beads; assay type: cell-based; conditions: HEK293 cells, 10 uM conjugate, 2 h binding, 45 min capture, release with 150 μM methotrexate; FIG. 4
T2 construct: expressed in transfected cells; host or cells: HEK293
T2 sequence (P00374 1-187): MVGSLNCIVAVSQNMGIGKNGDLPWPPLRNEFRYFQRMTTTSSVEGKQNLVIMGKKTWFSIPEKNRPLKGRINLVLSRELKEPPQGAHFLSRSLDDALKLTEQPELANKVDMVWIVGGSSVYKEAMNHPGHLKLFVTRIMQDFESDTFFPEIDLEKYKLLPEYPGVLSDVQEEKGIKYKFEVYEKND
Protocol: HEK293 cells were plated and transfected using PEI with plasmid DNA encoding a NANOLUC-DHFR fusion in wells of a 96-well plate. The DNA was diluted 1:50 with a promoterless carrier DNA plasmid (pCI) to a final concentration of 80 ng total DNA per well. Twenty-four hours post-transfection, cells were serum starved for additional 24 hours and then treated with […] 10 uM PBI-4848 or PBI-5015 while control cells were not treated with the conjugated drug. Following equilibration binding of 2 h, the media was removed, and the cells quickly washed with PBS and lysed in detergent-based lysis buffer for 10 min. Cell lysates were then transferred to wells of a 96-well plate containing 0.5 μl settled paramagnetic HALOTAG protein beads and incubated with shaking for 45 min. Following binding, the unbound fraction was removed, the HALOTAG protein paramagnetic beads washed, 150 μM unconjugated methotrexate added, and the captured NANOLUC:DHFR specifically released from the beads by competition with the unconjugated methotrexate for 60 min. The released NANOLUC:DHFR (+PBI-5015 or +PBI-4848) and control samples were detected by NANOGLO luciferase detection reagent.

[4] = test system: HaloTag® protein; assay: Binding efficiency to HaloTag protein in lysate (chase with fluorescent HaloTag ligand, SDS-PAGE); conditions: 1 μM, 0-60 min binding; for labeling kinetics / binding efficiency to HaloTag protein in lysate: methotrexate-chloroalkane conjugates, FIG. 3A
Protocol: a) Binding efficiency to HaloTag® protein in lysate was measured by adding the methotrexate-chloroalkane conjugates to lysate from cells expressing a HaloTag® protein to a final concentration of 1 μM. Following 0-60 mins of binding, the reactions were chased with 1 μM fluorescent HaloTag® ligand. Unbound HaloTag® protein was detected through binding to the fluorescent HaloTag® ligand followed by analysis on SDS-PAGE gel and detection on a fluorescent gel scanner.
a) Binding efficiency to HaloTag® protein in lysate was measured by adding the dexamethasone-chloroalkane conjugates to lysate from cells expressing a HaloTag® protein to a final concentration of 1 μM. Following 0-60 mins of binding, the reactions were chased with 1 μM fluorescent HaloTag® ligand. Unbound HaloTag® protein was detected through binding to the fluorescent HaloTag ligand followed by analysis on SDS-PAGE gel and detection on a fluorescent gel scanner.

[5] = biological target: T3, NanoLuc:GR fusion (Homo sapiens, UniProt P04150); assay: Pull-down of NanoLuc:GR fusion from live cells onto HaloTag protein beads; assay type: cell-based; conditions: HEK293 cells, 10 μM conjugate, 2 h binding, 45 min capture, release with 150 μM Dexamethasone; FIG. 8
T3 construct: expressed in transfected cells; host or cells: HEK293
T3 sequence (P04150 1-777): T1 sequence (P04150 1-777)
Protocol: HEK293 cells were plated and transfected using PEI with plasmid DNA encoding NanoLuc:GR fusion in wells of a 96-well plate. The DNA was diluted 1:50 with a promoterless carrier DNA plasmid (pCI neo) to a final concentration of 80 ng total DNA per well. Twenty-four hours post-transfection, cells were serum starved for additional 24 hours then incubated with a final concentration of 10 μM PBI-4980 or PBI-4025 while control cells were not treated with the conjugated drug. […] The released NanoLuc:GR (+PBI-4980 or +PBI-4025) and control samples were detected by using the NanoGlo® assay reagent (Promega Corp).

[6] = methotrexate-chloroalkane conjugates, 0-120 min binding, FIG. 3B

Structure (SMILES) | affinity / binding efficiency to glucocorticoid receptor [1] | cell permeability/binding efficiency to HaloTag protein in cells [2, 6] | pull-down of Nluc:DHFR fusion from living cells [3] | labeling kinetics / binding efficiency to HaloTag protein in lysate [4] | cell permeability/binding efficiency to HaloTag protein in cells ([2]; dexamethasone-chloroalkane conjugates, 0-60 min binding, FIG. 6B) | binding kinetics to HaloTag protein in lysate ([4]; dexamethasone-chloroalkane conjugates, FIG. 6A) | efficiency of Nluc:GR fusion pull down from live cells [5]
C[C@@H]1CC2C3CCC4=CC(=O)C=C[C@]4(C)[C@@]3(F)[C@@H](O)C[C@]2(C)[C@@]1(O)C(=O)NCCOCCOCCOCCOCCC(=O)NCCOCCOCCCCCCCl (some centres unmarked) [PBI-4025] | highest affinity; also recorded: best binding efficiency; also recorded: higher affinity | – | – | – | – | – | –
CN(Cc1cnc2nc(N)nc(N)c2n1)c1ccc(C(=O)NC(CCC(=O)NCCOCCOCCCCCCCl)C(=O)O)cc1 (centres unmarked) [PBI-4848] | – | best cell permeability/binding efficiency; also recorded: higher cell permeability | only PBI-5015 efficiently pulled down | fast labeling kinetics | – | – | –
C[C@@H]1CC2[C@@H]3CCC4=CC(=O)C=C[C@]4(C)[C@@]3(F)[C@@H](O)C[C@]2(C)[C@@]1(O)C(=O)NCCCCCNC(=O)OCCOCCOCCOC(=O)NCCOCCOCCCCCCCl (some centres unmarked) [PBI-4980, Dexamethasone Carbamate Chloroalkane] | best binding efficiency | – | – | – | best cell permeability/binding efficiency | faster binding kinetics | significantly higher than via PBI-4025
CN(Cc1cnc2nc(N)nc(N)c2n1)c1ccc(C(=O)NC(CCC(=O)NCCCCCNC(=O)OCCOCCOCCOC(=O)NCCOCCOCCCCCCCl)C(=O)O)cc1 (centres unmarked) [PBI-5015] | – | good cell permeability and binding efficiency | efficiently pulled down | fast labeling kinetics | – | – | –
